Measurements taken from paper doi:10.1101/144204v1, “On the use of the experimentally determined enzyme inhibition constant as a measure of absolute binding affinity” (biorxiv, 2017).
Counter-ions that a name gives are not always drawn.

Target: T1, eeAChE (Electrophorus electricus acetylcholinesterase) (Electrophorus electricus, UniProt O42275)
T1 construct: gene ache; construct details not given
Assay: Ellman assay (ATCh/DTNB, […] nm), Lineweaver-Burk
Type: biochemical

T1 sequence (O42275 24-633): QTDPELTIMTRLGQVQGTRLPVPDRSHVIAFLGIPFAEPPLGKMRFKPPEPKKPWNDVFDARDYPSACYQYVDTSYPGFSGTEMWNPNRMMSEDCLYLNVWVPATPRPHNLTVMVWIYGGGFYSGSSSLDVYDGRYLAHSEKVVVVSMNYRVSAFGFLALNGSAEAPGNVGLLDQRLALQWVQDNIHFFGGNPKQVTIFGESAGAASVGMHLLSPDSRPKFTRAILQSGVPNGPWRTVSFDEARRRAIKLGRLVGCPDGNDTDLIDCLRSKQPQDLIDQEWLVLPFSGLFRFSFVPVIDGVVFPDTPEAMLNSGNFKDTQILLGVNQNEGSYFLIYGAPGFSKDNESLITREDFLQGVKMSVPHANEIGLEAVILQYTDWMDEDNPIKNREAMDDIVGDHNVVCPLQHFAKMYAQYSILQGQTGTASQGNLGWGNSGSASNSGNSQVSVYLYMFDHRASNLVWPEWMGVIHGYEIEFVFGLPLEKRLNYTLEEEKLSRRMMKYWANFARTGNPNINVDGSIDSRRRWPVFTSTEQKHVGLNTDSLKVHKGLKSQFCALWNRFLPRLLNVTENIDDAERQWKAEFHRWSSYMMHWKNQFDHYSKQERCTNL

For c1ccc2c(NCCCCCCCNc3c4c(nc5ccccc35)CCCC4)c3c(nc2c1)CCCC3 [bis(7)-tacrine, 1,7-N-heptylene-bis-9,9'-amino-1,2,3,4-tetrahydro-acridinium dihydrochloride], which Ki is on record?
Its Ki is 2.9 ± 0.4 pM.
